Entries after “also recorded” stand apart in the source; their conditions may differ.
Experiments:
[1] = target: binding of NMDAR 2B to PSD95 (Homo sapiens, UniProt P78352); settings: reported by Bach; cited from earlier work
PBBI rats [2] = assay: Fixed-speed rotarod task after PBBI injury; format: in vivo, rat; settings: for rotarod task recovery: Study 1, 0.50 mg/kg, 7 days post-PBBI
Experimental: (§1) Body weight was assessed at time 0 (baseline), 24, 72 h and 7 days post injury. Body temperature was assessed at time 0, 30 min (prior to treatment), 2, 24, 72 h, and 7 days post injury. Neuroscore was assessed at 0, 30 min (prior to treatment), 24, 72 h, 7 days post injury. Balance beam was assessed at time 0, 3, and 7 days post injury. Rotarod was assessed at time 0 and 7 days post injury.
FIGS. 3A and B show dose-response studies on a rotarod. Rats were trained to criteria on the fixed-speed version of the rotarod task prior to PBBI and tested at 7 days post-PBBI. […] Columns=means; error bars=SEM; *p<0.05 compared to PBBI

PBBI rats [3] = assay: Morris Water Maze (MWM) task after PBBI; format: in vivo, rat; settings: multiple dosing (four injections at 30 minutes, 24, 48 and 72 hours post-PBBI; 0.5 and 5 mg/kg); at 5 or more days
Experimental: FIGS. 6A-D show the effects of multiple dosing regimes on neuroscore, rotarod and MWM performance Animals were given four injections of Tat-NR2B9c post-PBBI at 30 minutes, 24 hours, 48 hours and 72 hours.

PBBI rats [4] = assay: Neuroscore after PBBI injury; format: in vivo, rat; settings: Study 1, 0.5 mg/kg i.v. 8 minute infusion 30 minutes after PBBI, 72 hours post-PBBI, vs PBBI/veh
Experimental: as §1
Columns=means; error bars=SEM; *p<0.05 compared to PBBI; †p<0.05 compared to 0.05 mg/kg Tat-NR2B9c; #p<0.05 compared to 0.275 mg/kg Tat-NR2B9c.

PBBI rats [5] = assay: Body temperature after PBBI and dosing; format: in vivo, rat; settings: approximately 90 minutes following PBBI (60 minutes following dosing)
PBBI rats [6] = assay: Balance beam footfaults after PBBI injury; format: in vivo, rat; settings: for footfaults per beam segment contralateral to site of injury / rats unable to cross the beam (assigned maximal footfault scores): 3 days post-PBBI; for rats unable to cross the beam: 7 days post-PBBI
PBBI rats [7] = assay: PBBI neuropathology: lesion volume in brain sections (H&E, TTC staining); settings: for overall (total) lesion volume: Study 1, H&E stained sections, 7 days
Experimental: Male Sprague-Dawley rats (250-300 g) were subjected to a simulated ballistic wound to the right frontal hemisphere implemented by an inflatable penetrating probe. Three levels of injury severity were compared to control animals. Neurological and physiological outcome was assessed over a 3-day recovery period and brain tissue collected at 72 h for histopathological evaluation.
Tat-NR2B9c was administered i.v. in the jugular vein by an 8 minute infusion 30 minutes after inducing brain injury. Rats were sacrificed for histologic examination after 7 days. The dose of Tat-NR2B9c was Study I: 0.5 and 5.0 mg/ml/kg and Study II: 0.05, 0.275, and 0.5 mg/ml/kg. The rats were subject to the following treatments in Study I and II (sham=rat not subject to ballistic injury, PBBI=penetrative ballistic brain injury, veh=vehicle).
Study 1 evaluated two concentrations of Tat-NR2B9c (0.5 mg/kg and 5.0 mg/kg) (n=10 each group) with a survival period of 1 week. […] Behavioral and histological endpoints for both experiments included neurological assessments on neuroscore, balance beam, and rotarod tests, and lesion reconstruction on H&E stained sections.
As with the previous experiments, Tat-NR2B9c was administered as a slow bolus (8 minute) 30 minutes after PBBI.

cerebral ischemia = settings: reported in WO 2008/014917; cited from earlier work

Chain of binding of NMDAR 2B to PSD95 (P78352 whole entry): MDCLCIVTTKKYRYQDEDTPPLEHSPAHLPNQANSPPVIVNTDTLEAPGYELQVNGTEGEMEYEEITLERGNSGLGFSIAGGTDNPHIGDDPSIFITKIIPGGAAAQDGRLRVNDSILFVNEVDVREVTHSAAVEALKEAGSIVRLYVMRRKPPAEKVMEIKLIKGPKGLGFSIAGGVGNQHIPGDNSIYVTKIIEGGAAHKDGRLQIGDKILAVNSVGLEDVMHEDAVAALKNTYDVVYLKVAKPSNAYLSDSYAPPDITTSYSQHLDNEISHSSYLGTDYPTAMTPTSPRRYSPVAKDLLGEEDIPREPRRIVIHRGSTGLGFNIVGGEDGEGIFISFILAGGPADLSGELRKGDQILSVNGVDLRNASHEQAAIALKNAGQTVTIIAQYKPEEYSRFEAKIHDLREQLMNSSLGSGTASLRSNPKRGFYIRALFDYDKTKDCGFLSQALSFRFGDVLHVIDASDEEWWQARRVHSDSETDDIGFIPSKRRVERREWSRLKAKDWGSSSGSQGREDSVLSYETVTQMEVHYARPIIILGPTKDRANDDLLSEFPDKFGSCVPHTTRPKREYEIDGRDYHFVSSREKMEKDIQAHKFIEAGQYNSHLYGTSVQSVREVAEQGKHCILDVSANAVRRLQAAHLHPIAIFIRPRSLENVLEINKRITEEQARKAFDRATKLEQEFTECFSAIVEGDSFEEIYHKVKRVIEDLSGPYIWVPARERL

Substance: IESDV (listed as Homo sapiens)
- inhibition of binding of NMDAR 2B to PSD95 [1]: effective in inhibiting binding of NMDAR 2B to PSD95

Substance: YGRKKRRQRRRKLSSIESDV [Tat-NR2B9c]
- mean rotarod latencies across speeds relative to vehicle-treated PBBI rats (PBBI rats [2]; 20 mg/kg single slow bolus 30 minutes after PBBI): > 2 fold
- mean rotarod latency across speeds (PBBI rats [2]; 20 mg/kg, p<0.05 vs PBBI/veh): 29 ± 3 s
- rotarod performance (PBBI rats [2]; Study 1 (FIG. 3A), 0.5 mg/kg, summary statement): significantly improved
- rotarod task recovery (PBBI rats [2]; higher speeds (20-25 rpm)): but not at higher speeds
- rotarod task recovery (PBBI rats [2]; two lower speeds (10-15 rpm)): promoted significant recovery (to SHAM levels)
- MWM performance (PBBI rats [3]): possibly an improvement in the MWM performance
- neuroscore (PBBI-induced neurological deficits) (PBBI rats [4]): significant, reduction in PBBI-induced neurological deficits; also recorded: significantly improved neuroscore
- hypothermic effect (measured in the rectum) (PBBI rats [5]): about 2 degrees C.
- footfaults per beam segment contralateral to site of injury (PBBI rats [6]; Study 1, 0.5 mg/kg, vs PBBI rats): made significantly fewer foot faults than the PBBI rats
- footfaults per beam segment contralateral to site of injury (PBBI rats [6]; Study 1, 5.0 mg/kg, vs PBBI rats): made significantly fewer foot faults than the PBBI rats
- rats unable to cross the beam (assigned maximal footfault scores) (PBBI rats [6]; Study 1, high-dose, of 10 animals per group): two
- rats unable to cross the beam (PBBI rats [6]; Study 1, high-dose): one
- rats unable to cross the beam (assigned maximal footfault scores) (PBBI rats [6]; Study 1, low-dose, of 10 animals per group): two
- footfaults per beam segment contralateral to site of injury (PBBI rats [6]; Study 2, 0.275 mg/kg, narrowest beam segment, vs PBBI animals): made fewer footfaults than the PBBI animals
- footfaults per beam segment contralateral to site of injury (PBBI rats [6]; Study 2, 0.50 mg/kg, narrowest beam segment, vs PBBI animals): made fewer footfaults than the PBBI animals
- rats unable to cross the beam (assigned maximal footfault scores) (PBBI rats [6]; Study 2, high-dose, of 10-11 animals per group): one
- rats unable to cross the beam (assigned maximal footfault scores) (PBBI rats [6]; Study 2, low-dose, of 10-11 animals per group): three
- rats unable to cross the beam (PBBI rats [6]; Study 2, low-dose): one
- rats unable to cross the beam (assigned maximal footfault scores) (PBBI rats [6]; Study 2, medium-dose, of 10-11 animals per group): one
- stability of lyophilized composition (lyophilized at 1-50 mg/ml in normal saline, with or without excipients): stable at −20 °C or at room temperature
- period of stability (insignificant degradation or aggregation of the peptide) (peptide in normal saline at 10-30 mg/ml, stored frozen): two
- total lesion volume (PBBI rats [7]; 20 mg/kg, TTC staining, p<0.05 vs PBBI/veh): 37±4 mm^3
- reduction in total lesion volume (PBBI rats [7]; 20 mg/kg, TTC staining, vs PBBI/veh): 33%
- overall (total) lesion volume (PBBI rats [7]; 0.5 mg/kg): did not significantly reduce overall lesion volume; also recorded: did not reach a significant neuroprotective effect on total lesion volume
- overall (total) lesion volume (PBBI rats [7]; 5.0 mg/kg): did not significantly reduce overall lesion volume; also recorded: did not reach a significant neuroprotective effect on total lesion volume

Substance: vdseissllurrqrrkkrgyin [retro-inverso analog of Tat-NR2B9c]
- inhibition of cerebral ischemia (cerebral ischemia): effective inhibiting cerebral ischemia

From patent US9629892B2, “Treatment of penetrative injury to the brain” (NoNO Inc., priority 2010, dated 2017)
